# Key:
# [1] = test system: healthy male adults; test: Effect on performance in 400 m run; type: in vivo, human; details: single ingestion, 10 mg aglycone equivalent, 3 hours before run; placebo group −0.11 seconds
# Protocol: A two-group and two-phase crossover study (single ingestion) was conducted for 13 healthy male adults. In the study, a kaempferol-containing capsule-shaped food (SNR 14) wherein the aglycone equivalent value is 10 mg; and a placebo capsule-shaped food: Placebo (kaempferol free) were used as test foods. Three hours after taking the test food, the subjects sprinted 400 m, and sprinted 400 m again after a 90 minute interval. Respiratory rate and heart rate were monitored during the sprint. The expiratory mouth pressure was measured by the maximum mouth pressure method, before and after the 400 m runs, using an electronic spirometer, autospyro (Minato Medical Science Co., Ltd.). The subjects inhaled to the limit after three deep breaths in a standing position and then exhaled with full force into the mouthpiece for measurement while preventing air leakage from the nose to determine expiratory mouth pressure.
# [2] = test system: healthy adult males; test: Incremental loading exercise test with bicycle; type: in vivo, human; details: compared with no intake of kaempferol
# Protocol: For 25 healthy adult males, 3 dosages of kaempferol-containing cookie-shaped foods (containing 2.5 mg, 10 mg, or 25 mg of kaempferol, respectively) and a placebo cookie-shaped food (kaempferol-free) were used as test foods, and a once-a-day ingestion for consecutive 8 days were repeated four times by the crossover method. 3 hours after a test food ingestion on day 1 (Single ingestion) and on day 8 (Consecutive ingestion), an incremental loading exercise with bicycle was performed while sampling the exhaled gas to determine the oxygen consumption. The Heart rate and the rating of perceived exertion were monitored during exercise. Dynamic/kinetic visual acuity was measured before and after the exercise. Details of each endpoint are given below. Oxygen consumption (VO2) (mL/min/kg) was calculated from the difference between the amount of oxygen in the inhaled gas (atmosphere) and the amount of oxygen in the exhaled gas. When a weight of the pedal approaches a subject's limit during incremental loading exercise with bicycle, a heart rate (HR) is maximized. The increase in heart rate from the resting heart rate to the maximum heart rate was defined as 100% of exercise intensity, and the oxygen consumption (VO2) was plotted at each exercise intensity. That is, for example, an exercise intensity of 50% HR is calculated by the following equation: 100×(x−Resting heart rate)/(Maximum heart rate−Resting heart rate)=50% HR, and the oxygen consumption (VO2) in which the heart rate is the “x” means “oxygen consumption (VO2) at an exercise intensity of 50% HR”. Oxygen consumption efficiency was calculated by the following equation. Oxygen consumption efficiency (VO2/VE)=oxygen consumption/ventilation The oxygen uptake efficiency slope (OUES) was calculated using the ventilation and VO2 every 1 min from the beginning of the incremental loading exercise. Specifically, a graph of linearity was obtained by plotting “logarithmic value of ventilation (VE)” on the horizontal axis and “VO2” on the vertical axis, and the slope of the linear function graph was defined as OUES. For details, see Non-Patent Document 5. Exercise intensity (% HR) and rating of perceived exertion (RPE) at the oxygen consumption (VO2) of 14 mL/min/kg and 24.5 mL/min/kg in incremental loading exercise (the levels of stair climbing and jogging, respectively) were evaluated. The calculation methods for oxygen consumption (VO2) and exercise intensity (% HR) are the same as those described above. The perceived exertion was rated by the subject according to the following table at 1-minute intervals from the beginning of the incremental loading exercise, and the scales rated by each subject were averaged to give the rating of perceived exertion (RPE).
# [3] = at oxygen consumption (VO2) of 14 and 24.5 mL/min/kg (stair climbing and jogging levels), single and consecutive ingestion
# [4] = single ingestion and consecutive ingestion
structure (smiles),measurement,setting,value
O=c1c(O)c(-c2ccc(O)cc2)oc2cc(O)cc(O)c12 [kaempferol],mean time change between the 1st and 2nd 400 m runs,[1],-0.77 s
same,oxygen consumption (VO2),"[2]; at all exercise intensities (50%, 60%, 70%, 80%, 90%, and 100% HR), single ingestion and consecutive ingestion (8 days), 2.5, 10 or 25 mg kaempferol cookie",increased
same,exercise intensity (% HR),[2]; [3],decreased
same,rating of perceived exertion (RPE),[2]; [3],decreased
same,maximum exercise load (Pedal Weight (watt)),[2]; [4],increased
same,maximum oxygen consumption (VO2peak),[2]; [4],increased
same,oxygen consumption efficiency (VO2/VE),[2]; [4],increased
same,oxygen uptake efficiency slope (OUES),[2]; [4],increased
